In ChEMBL document CHEMBL1201862, “PubChem BioAssay data set” (2004):
The source made the active and inactive calls. Rule as the data show it, for most assays here: actives have a measured EC50 and inactives only a lower limit.

Columns and labels:
INS1 = assay: beta cell apoptosis inhibitors, cytokine rescue, dose response, luminescence, retest (AID 449756); format: functional, cell-based; settings: Rattus norvegicus;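 also: cell death triggered by IL-1 beta plus TNF-alpha plus IFN-gamma mixture; protective hits raise ATP signal compared with cytokine alone wells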
Cytochrome P450 3A4 = Cytochrome P450 3A4 (Homo sapiens, UniProt P08684);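 also: CYP3A4 tested as one member of a cytochrome P450 panel screen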
Cytochrome P450 2D6 = Cytochrome P450 2D6 (Homo sapiens, UniProt P10635);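 also: CYP2D6 member of a cytochrome P450 panel assay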
[1] = Luminescence Cell-Based Dose Retest to Confirm Inhibitors of Cancer Stem Cells. [Related pubchem assays (depositor defined):AID2717, AID2721]; format: functional; settings: Homo sapiens
Streptococcus = assay: Group A Streptococcus viability loss, dose response, counter-screen for streptokinase expression inhibitor project, luminescence, BacTiterGlo (AID 1915); format: functional, organism-based;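 also: potency for reduction of bacterial viability or growth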
[2] = tested on: Streptococcus sp. 'group A'; assay: growth inhibition of control SK(-) GAS strain, dose response, counter-screen for streptokinase expression inhibitor project, luminescence, kanamycin, BacTiterGlo, confirmation (AID 1900); format: functional, organism-based
Streptokinase A = target: T1, Streptokinase A (Streptococcus pyogenes serotype M1, UniProt P10520); assay: S. pyogenes streptokinase expression inhibitors, potency, dose response, plasminogen activation absorbance, OD405 (AID 1914); format: functional, Streptococcus pyogenes M1 GAS;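 also: secreted streptokinase activity via plasminogen activation per viability signal from cell pellet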
T1 sequence (P10520 whole entry): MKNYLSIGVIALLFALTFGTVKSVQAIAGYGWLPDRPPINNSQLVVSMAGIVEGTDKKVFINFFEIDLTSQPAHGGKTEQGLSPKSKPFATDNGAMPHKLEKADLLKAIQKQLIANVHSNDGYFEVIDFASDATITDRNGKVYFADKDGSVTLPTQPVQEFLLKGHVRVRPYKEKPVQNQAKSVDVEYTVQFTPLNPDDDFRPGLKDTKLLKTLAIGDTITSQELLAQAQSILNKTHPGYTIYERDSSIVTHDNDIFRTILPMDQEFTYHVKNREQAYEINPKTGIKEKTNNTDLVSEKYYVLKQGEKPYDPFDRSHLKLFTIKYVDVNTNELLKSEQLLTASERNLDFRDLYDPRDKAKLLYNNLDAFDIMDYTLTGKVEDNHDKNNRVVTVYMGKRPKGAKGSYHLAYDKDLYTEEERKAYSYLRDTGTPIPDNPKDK

[3] = Luminescence Cell-Based Dose Response HTS to Identify Inhibitors of 5'UTR Stem-Loop Driven Prion Protein mRNA Translation in H4 Neuroglioblastoma Cells. [Related pubchem assays: 1827 (Project Summary), 1813 (Primary HTS)]; format: functional
[4] = inhibitors of firefly luciferase expression or activity, dose response, H4 neuroglioma cells, luminescence (AID 1990); format: functional, cell-based
[5] = inhibitors of SNCA 5'UTR-driven reporter translation, confirmation, H4 neuroglioma cells, luminescence (AID 1988); format: functional, cell-based
Cytochrome P450 2C9 = Cytochrome P450 2C9 (Homo sapiens, UniProt P11712)
Cytochrome P450 1A2 = target: T2, Cytochrome P450 1A2 (Homo sapiens, UniProt P05177);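 also: PubChem cytochrome P450 panel assay, CYP1A2 panel member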
T2 sequence (P05177 whole entry): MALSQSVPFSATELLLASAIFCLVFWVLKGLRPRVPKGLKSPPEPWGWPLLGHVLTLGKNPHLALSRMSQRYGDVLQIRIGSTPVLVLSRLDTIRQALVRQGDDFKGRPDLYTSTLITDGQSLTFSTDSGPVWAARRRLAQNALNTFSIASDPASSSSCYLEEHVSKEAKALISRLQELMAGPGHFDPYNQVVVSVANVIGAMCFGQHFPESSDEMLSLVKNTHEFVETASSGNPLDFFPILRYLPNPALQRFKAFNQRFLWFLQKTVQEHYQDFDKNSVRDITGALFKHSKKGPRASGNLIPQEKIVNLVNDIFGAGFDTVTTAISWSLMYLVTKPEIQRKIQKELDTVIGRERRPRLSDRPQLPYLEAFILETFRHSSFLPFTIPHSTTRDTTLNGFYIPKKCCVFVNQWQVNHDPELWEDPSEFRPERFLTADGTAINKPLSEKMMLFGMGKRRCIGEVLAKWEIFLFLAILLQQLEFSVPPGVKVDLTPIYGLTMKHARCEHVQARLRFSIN

[6] = inhibitors of intracellular T. cruzi replication, confirmation, NIH3T3 host cells, beta-gal luminescence (AID 2044); format: functional, cell-based;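 also: intracellular parasites grown in NIH/3T3 mouse fibroblasts as host cells; luminescent beta-galactosidase reporter signal from transgenic T. cruzi replicating inside host cells; inhibitors lower the luminescence signal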
[7] = cytotoxicity toward NIH3T3 fibroblasts, dose response, counter-screen, cell-based, ATP luminescence, mouse fibroblasts (AID 2010); format: functional;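 also: cells exposed to compound for about 90 hours before reading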
[8] = target: T3, Heat shock factor protein 1 (Mus musculus, UniProt P38532); assay: inhibition of MG132-induced HSE-luciferase signal, confirmation, cell-based, NIH3T3, luminescence, dose retest (AID 2382); format: functional;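 also: NIH3T3 fibroblasts with HSF1-driven luciferase reporter stressed by proteasome inhibitor MG132; luminescence from HSF1-driven luciferase expression after 8 hours of MG132 stress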
T3 sequence (P38532 whole entry): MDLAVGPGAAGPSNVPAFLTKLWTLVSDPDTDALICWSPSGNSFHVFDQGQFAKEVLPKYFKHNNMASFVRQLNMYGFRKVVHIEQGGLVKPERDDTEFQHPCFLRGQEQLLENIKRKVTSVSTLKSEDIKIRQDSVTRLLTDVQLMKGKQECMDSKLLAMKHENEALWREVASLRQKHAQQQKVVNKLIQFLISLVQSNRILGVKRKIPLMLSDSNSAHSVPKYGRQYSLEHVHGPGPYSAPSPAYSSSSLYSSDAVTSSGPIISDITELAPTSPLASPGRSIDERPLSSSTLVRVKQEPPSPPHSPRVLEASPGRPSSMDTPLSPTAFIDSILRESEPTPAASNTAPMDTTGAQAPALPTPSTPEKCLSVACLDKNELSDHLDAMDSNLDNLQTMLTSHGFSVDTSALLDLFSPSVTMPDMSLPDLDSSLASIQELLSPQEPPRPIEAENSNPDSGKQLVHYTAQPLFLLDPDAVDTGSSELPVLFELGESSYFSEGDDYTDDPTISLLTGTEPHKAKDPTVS

Sequence of Cytochrome P450 3A4 (P08684 whole entry): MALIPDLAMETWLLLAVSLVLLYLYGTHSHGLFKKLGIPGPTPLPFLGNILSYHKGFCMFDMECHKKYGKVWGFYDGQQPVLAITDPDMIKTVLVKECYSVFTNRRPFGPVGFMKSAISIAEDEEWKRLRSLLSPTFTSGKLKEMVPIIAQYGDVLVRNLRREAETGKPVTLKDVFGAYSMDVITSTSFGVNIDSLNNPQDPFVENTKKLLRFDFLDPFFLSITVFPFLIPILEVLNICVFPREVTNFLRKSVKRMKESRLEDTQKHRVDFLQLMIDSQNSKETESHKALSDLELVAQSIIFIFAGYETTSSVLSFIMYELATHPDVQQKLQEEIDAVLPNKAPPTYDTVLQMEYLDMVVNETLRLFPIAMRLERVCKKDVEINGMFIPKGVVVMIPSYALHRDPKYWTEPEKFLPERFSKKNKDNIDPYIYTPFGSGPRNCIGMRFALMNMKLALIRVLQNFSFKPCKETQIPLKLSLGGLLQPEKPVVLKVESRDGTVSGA
Sequence of Cytochrome P450 2C9 (P11712 whole entry): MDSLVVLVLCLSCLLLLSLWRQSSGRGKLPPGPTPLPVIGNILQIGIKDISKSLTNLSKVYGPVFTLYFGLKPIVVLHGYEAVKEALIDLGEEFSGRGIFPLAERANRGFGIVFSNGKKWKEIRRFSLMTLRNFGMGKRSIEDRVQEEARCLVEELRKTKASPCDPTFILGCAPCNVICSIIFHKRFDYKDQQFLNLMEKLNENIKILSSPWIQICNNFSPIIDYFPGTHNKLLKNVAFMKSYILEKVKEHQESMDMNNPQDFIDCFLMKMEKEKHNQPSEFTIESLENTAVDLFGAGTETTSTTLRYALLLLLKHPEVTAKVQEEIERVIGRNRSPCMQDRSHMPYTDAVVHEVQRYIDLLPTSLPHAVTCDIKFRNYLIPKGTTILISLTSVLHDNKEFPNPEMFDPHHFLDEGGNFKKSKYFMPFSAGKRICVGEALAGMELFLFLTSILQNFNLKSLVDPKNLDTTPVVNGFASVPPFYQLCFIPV
Sequence of Cytochrome P450 2D6 (P10635 whole entry): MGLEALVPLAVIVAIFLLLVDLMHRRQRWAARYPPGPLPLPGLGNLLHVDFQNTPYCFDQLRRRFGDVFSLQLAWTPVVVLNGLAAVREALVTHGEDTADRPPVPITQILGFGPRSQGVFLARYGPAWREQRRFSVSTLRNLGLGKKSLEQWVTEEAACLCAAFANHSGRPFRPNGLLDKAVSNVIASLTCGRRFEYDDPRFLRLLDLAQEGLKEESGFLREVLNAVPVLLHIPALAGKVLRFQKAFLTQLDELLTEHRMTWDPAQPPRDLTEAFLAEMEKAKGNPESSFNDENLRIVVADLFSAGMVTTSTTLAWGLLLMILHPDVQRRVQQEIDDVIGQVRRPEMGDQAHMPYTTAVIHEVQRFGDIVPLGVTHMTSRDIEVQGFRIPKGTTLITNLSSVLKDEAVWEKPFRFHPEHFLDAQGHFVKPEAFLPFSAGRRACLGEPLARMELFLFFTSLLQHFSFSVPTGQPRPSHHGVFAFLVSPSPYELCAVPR

Cc1ccc(S(=O)(=O)N2CCCCC2c2cccnc2)c(C)c1C (stereo not drawn)
AC50 (INS1): 57.2 µM (active)

Cc1cc(C)n2nc(-c3sccc3-n3cccc3)cc2n1
AC50 (Cytochrome P450 3A4): 3.55 µM (inconclusive) | AC50 (Cytochrome P450 2D6): 35.5 µM (inconclusive)

COc1cccc(C(=O)/C=C/c2ccc(N3CCCCC3)c([N+](=O)[O-])c2)c1
AC50 [1]: 7.86 µM (active)

C/C(=N\NC(=O)c1ccc(C)cc1)c1c(C)nn(-c2ccccc2)c1O
AC50 (INS1): 3.15 µM (active) | EC50 (Streptococcus): 14.7 µM (active) | EC50 [2]: 3.96 µM (active) | EC50 (Streptokinase A): > 150 µM (not active)

OCCCn1c(CCNc2nc(-c3ccc(Cl)cc3)cs2)nc2cc(C(F)(F)F)ccc21
AC50 [1]: 23.9 µM (active)

C=CCn1c(CNc2ccccc2)nnc1SCC(=O)N/N=C/c1ccccc1O
EC50 [3]: > 120 µM (not active) | EC50 [4]: 18.3 µM (active) | EC50 [5]: > 120 µM (not active)

COc1ccc(-n2c(=O)c(-c3cccs3)nc3cnc(N4CCOCC4)nc32)cc1
AC50 (Cytochrome P450 3A4): 20 µM (inconclusive) | AC50 (Cytochrome P450 2C9): 20 µM (inconclusive) | AC50 (Cytochrome P450 1A2): 12.6 µM (inconclusive)

CCC(c1nnnn1CCc1ccccc1)N(Cc1ccco1)Cc1cc2c(C)ccc(C)c2nc1O (stereo not drawn)
EC50 [3]: > 120 µM (not active) | EC50 [4]: > 120 µM (not active) | EC50 [6]: 1.41 µM (active) | EC50 [7]: > 60 µM (not active) | EC50 [5]: > 120 µM (not active)

COC(=O)N1CCC2(CCCN(Cc3nccs3)C2)CC1
AC50 (Cytochrome P450 3A4): 15.8 µM (inconclusive) | AC50 (Cytochrome P450 2D6): 12.6 µM (inconclusive)

Cc1cc(=O)oc2c(OS(C)(=O)=O)c(OS(C)(=O)=O)ccc12
AC50 (Cytochrome P450 1A2): 0.794 µM (inconclusive)

CN(C)C(=O)c1ccc(NC(=O)c2cccnc2)cc1
AC50 (INS1): 6.14 µM (active)

c1nc(NCCc2c[nH]cn2)c2nc[nH]c2n1
AC50 (Cytochrome P450 3A4): 3.98 µM (inconclusive) | AC50 (Cytochrome P450 1A2): 5.01 µM (inconclusive)

COC(=O)c1ccc(CSc2nc3cc(Cl)ccc3s2)o1
AC50 (Cytochrome P450 3A4): 25.1 µM (inconclusive) | AC50 (Cytochrome P450 2D6): 20 µM (inconclusive)

COc1ccccc1N1CCN(Cc2cc(=O)n3ccsc3n2)CC1
AC50 (Cytochrome P450 2D6): 22.4 µM (inconclusive)

CN1CCN(C(=O)O[C@@H]2c3nccnc3C(=O)N2c2ccc(Cl)cn2)CC1
AC50 (Cytochrome P450 1A2): 39.8 µM (inconclusive)

COc1ccccc1-c1nnc(SCC(=O)N2CC(C)CC(C)C2)o1 (stereo not drawn)
EC50 [3]: > 120 µM (not active) | EC50 [4]: > 120 µM (not active) | EC50 [5]: > 120 µM (not active)

Cc1cccc(N2CC(=O)C(c3nc4ccccc4n3C)=C2N)c1
AC50 (Cytochrome P450 1A2): 14.1 µM (inconclusive)

CCOC(=O)c1cc(CC)sc1NC(=O)CSc1nc2ccccc2c(=O)n1Cc1ccco1
EC50 [3]: > 120 µM (not active) | EC50 [4]: > 120 µM (not active) | EC50 [5]: 17.8 µM (active)

Cn1nnc2cc(C(=O)NC(C)(C)C)ccc21
EC50 [8]: 83.9 µM (active)

COc1ccc(S(=O)(=O)N2CCCN(CCC(=O)Nc3cccc(C(F)(F)F)c3)CC2)cc1
AC50 (Cytochrome P450 3A4): 39.8 µM (inconclusive) | AC50 (Cytochrome P450 2C9): 39.8 µM (inconclusive) | AC50 (Cytochrome P450 1A2): 15.8 µM (inconclusive)

COc1ccccc1-c1nccc(NCc2cccnc2)n1
AC50 (Cytochrome P450 2D6): 20 µM (inconclusive)

O=C(CNS(=O)(=O)c1ccccc1F)Nc1ccc(N2CCOCC2)cc1
EC50 [8]: > 195 µM (not active)

Cc1ccc(C(=O)NC(=C(Cl)Cl)S(=O)(=O)c2ccccc2)cc1
AC50 [1]: 3.29 µM (active)

CC(=O)c1cccc(NC(=O)CSc2ccc(-c3ccccn3)nn2)c1
EC50 [3]: 14.6 µM (active) | EC50 [4]: > 120 µM (not active) | EC50 [5]: > 120 µM (not active)

CCOC(=O)c1ncn2c1CN(C)C(=O)c1cc(F)ccc1-2 [FLUMAZENIL]
AC50 (Cytochrome P450 1A2): 39.8 µM (inconclusive)

COc1cccc(OC)c1C(=O)NC(=S)N1CCN(c2ccc(C(F)(F)F)cc2[N+](=O)[O-])CC1
AC50 (Cytochrome P450 2D6): 20 µM (inconclusive)

c1ccc(N(c2ccccc2)c2nc(N3CCCC3)nc(-n3ccnc3)n2)cc1
EC50 [6]: 1.84 µM (active) | EC50 (Streptococcus): 5.49 µM (active) | EC50 [2]: 5.55 µM (active) | EC50 [7]: > 60 µM (not active) | AC50 [1]: 5.16 µM (active) | EC50 (Streptokinase A): > 150 µM (not active)

NC(=S)N/N=C/c1cc([N+](=O)[O-])ccc1OCCOc1ccccc1
EC50 [8]: 52.6 µM (active)

Clc1ccc(Sc2ccc(/C=N/n3cnnc3)o2)cc1
AC50 (Cytochrome P450 2D6): 15.8 µM (inconclusive)

NC(CC(=O)Nc1ccc(F)cc1)=NO
EC50 [8]: > 195 µM (not active)

CC(=O)N1CCN(C)CC1
AC50 (Cytochrome P450 1A2): 31.6 µM (inconclusive)

COc1ccc(C(=O)NCC2(c3ccccc3)CCCC2)c(OC)c1
AC50 [1]: 1.22 µM (active)

NS(=O)(=O)c1ccc(N/N=C2/CCCCC2C2CCCCC2)c([N+](=O)[O-])c1 (stereo not drawn)
AC50 (INS1): 7.29 µM (active) | EC50 (Streptococcus): 7.18 µM (active) | EC50 [2]: 3.34 µM (active) | EC50 (Streptokinase A): 7.92 µM (inconclusive)

O=C(O)CN1CCN(Cc2ccccc2)C1=O
AC50 (Cytochrome P450 2C9): 11.2 µM (inconclusive) | AC50 (Cytochrome P450 2D6): 15.8 µM (inconclusive)

O=C(OC(C(=O)NCC1CCCO1)c1ccc(F)cc1)c1cccs1 (stereo not drawn)
EC50 [8]: > 195 µM (not active)

O=[N+]([O-])c1ccccc1Nc1cccnc1
EC50 [8]: > 195 µM (not active)

CC(=O)NCCNc1ccnc(-c2ccccc2C(F)(F)F)n1
AC50 (Cytochrome P450 3A4): 15.8 µM (inconclusive) | AC50 (Cytochrome P450 1A2): 15.8 µM (inconclusive)

COc1ccc(C(O)c2nccn2Cc2ccccc2)cc1 (stereo not drawn)
AC50 (Cytochrome P450 1A2): 6.31 µM (inconclusive)

COc1ccccc1-c1nc(NCCNC(C)=O)c2ccccc2n1
AC50 (Cytochrome P450 1A2): 15.8 µM (inconclusive)

COC(=O)[C@H](CC(C)C)N(Cc1ccccc1)S(=O)(=O)N(Cc1ccc(OC)cc1)[C@@H](CC(C)C)C(=O)OC
AC50 (INS1): 5.77 µM (active)

CCNc1ncc2nc(CCc3ccccc3)c(=O)n(Cc3cccc(OC)c3)c2n1
AC50 (Cytochrome P450 1A2): 12.6 µM (inconclusive)

O=S(=O)(/N=C(/c1ccccc1Cl)N1CCOCC1)c1ccccc1
EC50 [8]: > 195 µM (not active)

CCOC(=O)c1ccc2ncc(C(C)=O)c(O)c2c1
EC50 [8]: > 195 µM (not active)

CCOC(=O)N/N=C\c1ccc(C)s1
EC50 [8]: > 195 µM (not active)

O=C(NC1CCCCC1)C1CCN(C(=O)c2ccc(-c3ccccc3)cc2)CC1
EC50 [3]: > 120 µM (not active) | EC50 [4]: > 120 µM (not active) | EC50 [5]: 77.5 µM (active)

CC/C(NCc1cc(OC)cc(OC)c1)=C1/C(=O)NC(=O)N(C2CCCCC2)C1=O
EC50 [3]: > 120 µM (not active) | EC50 [4]: 16 µM (active) | EC50 [5]: 27.2 µM (active)

CC(C)CNc1nc(N)c([N+](=O)[O-])c(NCC2CCCO2)n1 (stereo not drawn)
EC50 [3]: 4.6 µM (active) | EC50 [4]: 13.5 µM (active) | EC50 [5]: > 120 µM (not active)

O=C1N=C(N2CCCC2)S/C1=C\C=C\c1ccccc1
EC50 [8]: < 0.16 µM (active)

COc1ccc(/C=N/NC(=S)Nc2ccccc2[N+](=O)[O-])cc1O
AC50 [1]: 4.87 µM (active)
